# Measurements as given in publication PMC6254286, “Quantitative Structure − Antiprotozoal Activity Relationships of Sesquiterpene Lactones ^†” (Molecules, 2009).
# Like-named read-outs stand apart in the source and are kept apart here.
# How the values were obtained:
# in vitro = conditions: rat; for IC50: IC50 Cytotoxicity (L6), L6 rat skeletal myoblasts, 72 h, mean of two independent measurements
# Protocol: (§1) Trypanosoma brucei rhodesiense and cytotoxicity against L6 cells. Minimum Essential Medium with Earle’s salts (50 µL) supplemented with 0.2 mM 2-mercapto-ethanol, 1 mM Na-pyruvate and 15% heat-inactivated horse serum was added to each well of a 96-well microtiter plate. […] Then 10^4 bloodstream forms of Trypanosoma brucei rhodesiense STIB 900 in 50 µL of medium were added to each well and the plate incubated at 37°C under a 5% CO2 atmosphere for 72 hours. […] The plate was then read in a Spectramax Gemini XS microplate fluorometer (Molecular Devices Corporation, Sunnyvale, CA, USA) using an excitation wavelength of 536 nm and emission wavelength of 588 nm. Fluorescence development was measured and expressed as percentage of the control. Data were transferred into the graphic programme Softmax Pro (Molecular Devices) which calculated IC50 values. Cytotoxicity was assessed using a similar protocol and rat skeletal myoblasts (L6 cells). […] All following steps were according to the T. b. rhodesiense protocol.
# [1] = tested on: K1 strain of P. falciparum; assay: Antiplasmodial [3H]-hypoxanthine incorporation assay; format: cell-based, Plasmodium falciparum; conditions: Plasmodium falciparum
# Protocol: Plasmodium falciparum. Antiplasmodial activity was determined using the K1 strain of P. falciparum (resistant to chloroquine and pyrimethamine). A modification of the [3H]-hypoxanthine incorporation assay was used. Briefly, infected human red blood cells (final parasitaemia and haematocrit were 0.3% and 1.25%, respectively) in RPMI 1640 medium with 5% Albumax were exposed to serial drug dilutions in microtiter plates. After 48 hours of incubation at 37°C in a reduced oxygen atmosphere, 0.5 mCi 3H-hypoxanthine was added to each well. Cultures were incubated for a further 24 h before they were harvested onto glass-fiber filters and washed with distilled water. The radioactivity was counted using a BetaplateTM liquid scintillation counter (Wallac, Zurich, Switzerland). […] From the sigmoidal inhibition curves IC50 values were calculated. Assays were run in duplicate and repeated once.
# [2] = tested on: Leishmania donovani amastigotes (strain MHOM/ET/67/L82); assay: L. donovani axenic amastigote assay (resazurin); format: cell-based; conditions: for IC50: Leishmania donovani
# Protocol: Leishmania donovani (axenic amastigote assay). […] Serial drug dilutions in duplicates were prepared covering a range from 30 to 0.041 µg/mL. […] The compounds used as positive controls in the various bioassays (see Table 1) were of commercial origin, with the exception of melarsoprol, which was a gift from WHO. Their purity (generally > 95%) was specified by the manufacturers.
# [3] = tested on: T. cruzi Tulahuen strain C2C4; assay: In vitro activity against T. cruzi in L-6 host cells (beta-galactosidase/CPRG); format: cell-based, Trypanosoma cruzi; conditions: Trypanosoma cruzi, read-out: IC50 T. cruzi (Tcr)
# Protocol: Trypanosoma cruzi. Rat skeletal myoblasts (L-6 cells) were seeded in 96-well microtiter plates at 2,000 cells/well in 100 µL RPMI 1640 medium with 10% FBS (fetal bovine serum) and 2 mM L-glutamine. After 24 hours the medium was removed and replaced by 100 µL per well containing 5,000 trypomastigote forms of T. cruzi Tulahuen strain C2C4 containing the β-galactosidase (Lac Z) gene. Fortyeight hours later the medium was removed from the wells and replaced by […] fresh medium with or without a serial drug dilution. Seven 3-fold dilutions were used covering a range from […]. Each drug was tested in duplicate. After 96 hours of incubation the plates were inspected under an inverted microscope to assure growth of the controls and sterility. Then the substrate CPRG/ Nonidet (50 µL) was added to all wells. A colour reaction developed within 2-6 hours and could be read photometrically at 540 nm.
# [4] = tested on: Trypanosoma brucei rhodesiense STIB 900; assay: In vitro activity against T. brucei rhodesiense bloodstream forms (Alamar blue); format: cell-based; conditions: for IC50: mean of two independent measurements; for selectivity index (SI) with respect to Tbr: ratio of cytotoxic IC50 (L6) over IC50 against Tbr
# Protocol: as §1
# [5] = K1, read-out: IC50 P. falciparum (Pfc)
# [6] = axenic amastigotes, pH 5.4, 72 h, mean of two independent measurements, read-out: IC50 L. donovani (Ldon)
# [7] = L6, Tulahuen C2C4 in L-6 cells, 96 h, mean of two independent measurements
# [8] = Trypanosoma brucei, 72 h, bloodstream forms STIB 900, 72 h, read-out: IC50 T. brucei rhodes. (Tbr)
# [9] = K1, K1 strain (resistant to chloroquine and pyrimethamine), mean of two independent measurements, read-out: IC50 P. falciparum (Pfc)
# [10] = 72 h, pH 5.4, axenic amastigotes, pH 5.4, 72 h, mean of two independent measurements, read-out: IC50 L. donovani (Ldon)
# [11] = TULAHUEN, L6, 96 h, Tulahuen C2C4 in L-6 cells, 96 h, mean of two independent measurements
# [12] = L6 cells (rat skeletal myoblasts)
# [13] = Trypanosoma brucei, 72 h, read-out: IC50 T. brucei rhodes. (Tbr), bloodstream forms STIB 900, 72 h
# [14] = 72 h, pH 5.4, read-out: IC50 L. donovani (Ldon)
# [15] = bloodstream forms STIB 900, 72 h, read-out: IC50 T. brucei rhodes. (Tbr)
compound,measurement,setting,value
CC1CC2OC(=O)C(C)C2C(O)C2(C)C(=O)C=CC12 (centres unmarked) [Compound 5],IC50,in vitro,8.9 µM
same,IC50,[1]; [5],3.05 µM
same,IC50,[2]; [6],3.85 µM
same,IC50,[3]; [7],21.5 µM
same,IC50,[4]; [8],0.686 µM
C=C1C(=O)OC2CC(C)C3C=CC(=O)C3(C)C(OC(=O)C(C)C)C12 (centres unmarked) [Compound 3],IC50,in vitro,1.03 µM
same,IC50,[1]; [5],0.7 µM
same,IC50,[2]; [6],0.837 µM
same,IC50,[3]; [7],1.57 µM
same,IC50,[4]; [8],0.105 µM
C=C1C(=O)OC2CC3(C)C(CCC(C)=O)C3CC12 (centres unmarked) [Compound 20],IC50 at 72 h,in vitro,19.8 µM
same,IC50,[1]; [9],12.7 µM
same,IC50,[2]; [10],14.6 µM
same,IC50,[3]; [11],39 µM
same,IC50,[4]; [8],15.9 µM
C=C1C(=O)OC2CC(C)C3C(O)CC(OC(=O)C(C)=CC)C3(C)C(O)C12 (centres unmarked) [Compound 12],IC50,in vitro,16.7 µM
same,IC50,[1]; [9],10.6 µM
same,IC50,[2]; [10],18 µM
same,IC50,[3]; [11],49.2 µM
same,IC50,[4]; [8],11 µM
CC(C)CC(=O)OC1C2C(CC(C)C3C=CC(=O)C31C)OC(=O)C2C (centres unmarked) [Compound 7],IC50 at 72 h,in vitro; [12],4.58 µM
same,IC50,[1]; [9],1.6 µM
same,IC50,[2]; [10],1.48 µM
same,IC50,[3]; [11],3.53 µM
same,IC50,[4]; [8],0.911 µM
"COc1cc([C@@H]2c3cc4c(cc3[C@H](O)[C@H]3COC(=O)[C@H]23)OCO4)cc(OC)c1OC [podophyllotoxin, reference compound]",IC50 at 72 h,in vitro,0.012 µM
C=C1C(=O)OC2CC3(C)CC(=O)CC(C)C3=CC12 (centres unmarked) [Compound 30],IC50 at 72 h,in vitro; [12],10.2 µM
same,IC50,[1]; [9],10.7 µM
same,IC50,[2]; [10],8.7 µM
same,IC50,[3]; [11],17.3 µM
same,IC50,[4]; [8],1.6 µM
C=C1CC(O)CC2(C)CC3OC(=O)C(C)C3CC12 (centres unmarked) [Compound 28],IC50 at 72 h,in vitro; [12],187 µM
same,IC50,[1]; [9],> 20 µM
same,IC50,[2]; [10],> 120 µM
same,IC50,[3]; [11],> 120 µM
same,IC50,[4]; [8],341 µM
C=C1C(=O)OC2CC(C)C3C(O)CC(O)C3(C)C(OC(=O)C(C)=CC)C12 (centres unmarked) [Compound 13],IC50,in vitro,31.8 µM
same,IC50,[1]; [5],27.5 µM
same,IC50,[2]; [6],14.5 µM
same,IC50,[3]; [7],60.2 µM
same,IC50,[4]; [8],19.2 µM
"C=C1C(=O)O[C@@H]2C[C@@H](C)[C@@H]3C=CC(=O)[C@@]3(C)[C@@H](O)[C@H]12 [Compound 1, helenalin]",IC50 at 72 h,in vitro,0.992 µM
same,IC50,"[3]; TULAHUEN, L6, 96 h",0.695 µM
same,IC50,[4]; [13],< 0.1 µM
same,IC50,"[4]; read-out: IC50 T. brucei rhodes. (Tbr), bloodstream forms STIB 900, 72 h",0.052 µM
same,IC50,"[4]; read-out: IC50 T. brucei rhodes. (Tbr), bloodstream forms STIB 900, 72 h, listed as helenalin",0.05 to 0.1 µM
C=C1C(=O)OC2CC(C)C3=CC(=O)OC3CC12 (centres unmarked) [Compound 24],IC50 at 72 h,in vitro; [12],427 µM
same,IC50,[1]; [9],> 20 µM
same,IC50,[2]; [10],27.1 µM
same,selectivity index (SI) with respect to Ldon,[2]; ratio of cytotoxic IC50 (L6) over IC50 against Ldon,15
same,IC50,[3]; [11],> 120 µM
same,IC50,[4]; [8],8.21 µM
same,selectivity index (SI) with respect to Tbr,[4],52
C=C1C(=O)OC2C=C(C)C(OC(C)=O)CC3OC3(C)CC(OC(=O)C(C)=CC)C12 (centres unmarked) [Compound 39],IC50 at 72 h,in vitro,10.1 µM
same,IC50,[1]; [5],8.07 µM
same,IC50,[2]; [14],30.1 µM
same,IC50,"[3]; TULAHUEN, L6, 96 h",17.6 µM
same,IC50,[4]; [13],0.804 µM
C=C1C(=O)OC2CC(C)C3C=CC(=O)C3(C)C(OC(C)=O)C12 (centres unmarked) [Compound 2],IC50,in vitro,0.809 µM
same,IC50,[1]; [5],0.329 µM
same,IC50,[2]; [6],0.446 µM
same,IC50,[3]; [7],0.538 µM
same,IC50,[4]; [8],< 0.1 µM
same,IC50,[4]; [15],0.063 µM
same,selectivity index (SI) with respect to Tbr,[4],13
C=C1C(=O)OC2C=C(C)CCC3OC3(CO)CC(OC(=O)C3(C)OC3C)C12 (centres unmarked) [Compound 36],IC50,in vitro,13.6 µM
same,IC50,[1]; [9],9.44 µM
same,IC50,[2]; [10],2.73 µM
same,IC50,[3]; [11],25.6 µM
same,IC50,[4]; [8],14.3 µM
CC1CC2OC(=O)C34CC5(C)C=CC13C(CC24)O5 (centres unmarked) [Compound 23],IC50,in vitro,> 365 µM
same,IC50,[1]; [9],> 20 µM
same,IC50,[2]; [10],15.4 µM
same,IC50,[3]; [11],> 120 µM
same,IC50,[4]; [8],162 µM
C=C1C(=O)OC2CC(C)C3C(O)CC(O)C3(C)CC12 (centres unmarked) [Compound 11],IC50 at 72 h,in vitro; [12],31.9 µM
same,IC50,[1]; [9],12.1 µM
same,IC50,[2]; [10],20.6 µM
same,IC50,[3]; [11],52.7 µM
same,IC50,[4]; [8],18.3 µM
C=C1C(=O)OC2C1CCC1(C)C(O)CCC(=C)C21 (centres unmarked) [Compound 31],IC50,in vitro,33.2 µM
same,IC50,[1]; [9],12.1 µM
same,IC50,[2]; [10],6.01 µM
same,IC50,[3]; [11],28.9 µM
same,IC50,[4]; [15],17.8 µM
C=C1C(=O)OC2C=C(C)C(O)CC3OC3(C)CC(OC(=O)C(C)=CC)C12 (centres unmarked) [Compound 38],IC50 at 72 h,in vitro; [12],13 µM
same,IC50,[1]; [9],8.81 µM
same,IC50,[2]; [10],18.2 µM
same,IC50,[3]; [11],16.5 µM
same,IC50,[4]; [8],0.942 µM
C=C1C(=O)OC2CC3(C)CC(OC(C)=O)CC(=C)C3CC12 (centres unmarked) [Compound 27],IC50 at 72 h,in vitro; [12],8.91 µM
same,IC50,[1]; [9],9.21 µM
same,IC50,[2]; [10],11.8 µM
same,IC50,[3]; [11],24.3 µM
same,IC50,[4]; [8],10.7 µM
C=C1C(=O)OC2CC(C)C3C(OC(C)=O)CC(O)C3(C)C(O)C12 (centres unmarked) [Compound 9],IC50,in vitro,12.3 µM
same,IC50,[3]; [11],45.8 µM
same,IC50,[4]; [8],9.28 µM
"CCCCCCCCCCCCCCCCOP(=O)([O-])OCC[N+](C)(C)C [miltefosine, reference compound]",IC50,[2]; [10],0.27 µM
CC(=O)OC1C2C(CC(C)C3C=CC(=O)C31C)OC(=O)C2C (centres unmarked) [Compound 6],IC50 at 72 h,in vitro; [12],3.06 µM
same,IC50,[2]; [10],> 4 µM
same,IC50,[3]; [11],6.93 µM
same,IC50,[4]; [8],1.42 µM
"Nc1nc(N)nc(Nc2ccc([As]3SCC(CO)S3)cc2)n1 (centres unmarked) [melarsoprol, reference compound]",IC50,[4]; [13],0.008 µM
C=C1C(=O)OC2CC(C)C3C=CC(=O)C3(C)C(O)C12 (centres unmarked) [Compound 8],IC50 at 72 h,in vitro,2.44 µM
same,IC50,[2]; [14],> 4 µM
same,IC50,"[3]; TULAHUEN, L6, 96 h",1.87 µM
same,IC50,[4]; [13],0.319 µM
"CCN(CC)CCCC(C)Nc1ccnc2cc(Cl)ccc12 (centres unmarked) [chloroquine, reference compound]",IC50,[1]; [5],0.248 µM
"O=C(Cn1ccnc1[N+](=O)[O-])NCc1ccccc1 [benznidazole, reference compound]",IC50,[3]; [11],2 µM
